According to patent US20260345612A1, “THERAPEUTIC COMBINATIONS COMPRISING UBIQUITIN-SPECIFIC-PROCESSING PROTEASE 1 (USP1) INHIBITORS AND PARP1-SELECTIVE INHIBITORS” (KSQ Therapeutics, Inc., priority 2022, published 2026):

Assays:
[1] = tested on: olaparib resistant patient-derived breast xenograft; experiment: Anti-tumor activity in olaparib resistant patient-derived breast xenograft model in nude mice; assay type: in vivo, Athymic nude mice
From the text: Example 1: Anti-Tumor Activity of Formula I Co-Crystal in Combination with the Selective PARP1 Inhibitor, AZD5305, in a Patient-Derived Breast Xenograft Model in Nude Mice
The USP1 inhibitor employed in the examples is the co-crystal described above in paragraphs and [0143]-[0155]. This co-crystal can be prepared as described in Example 6 of Published PCT WO2022/094096. The Formula I co-crystal is a co-crystal of gentisic acid and 6-(4-cyclopropyl-6-methoxypyrimidin-5-yl)-1-(4-(1-isopropyl-4-(trifluoromethyl)-1H-imidazol-2-yl)benzyl)-1H-pyrazolo[3,4-d]pyrimidine.
Anti-tumor activity of the USP1 inhibitor of Formula I co-crystal in combination with AZD5305 was evaluated in mice using an olaparib resistant patient-derived breast xenograft model in nude mice, as shown in FIGS. 1A through 1C. 6-9 week old female Athymic nude mice from Envigo were anesthetized, and a 20 mm^3 tumor fragment was placed subcutaneously via incision in the flank. When tumors established to a tumor volume ranging from 63 to 196 mm^3, mice were randomized into groups of 10 and were assigned into the following groups: control, Formula I (100 mg/kg), AZD5305 (10 mg/kg) or Formula I (100 mg/kg) and AZD5305 (10 mg/kg) in combination. […] Body weight and tumor volume were measured twice per week. Tumor volume was calculated as mean and standard error of the mean for each treatment group.

[2] = tested on: breast xenograft tumors with resistance to AZD5305 monotherapy; experiment: Combination activity in mice with tumors resistant to PARP inhibitors (AZD5305 monotherapy); assay type: in vivo, Athymic nude mice; conditions: from day 49, 5 mice resistant to AZD5305 monotherapy; Formula I (100 mg/kg) and AZD5305 (10 mg/kg); FIG. 1B
Experimental: Anti-tumor activity of the USP1 inhibitor of Formula I co-crystal in combination with AZD5305 was evaluated in mice using an olaparib resistant patient-derived breast xenograft model in nude mice, as shown in FIGS. 1A through 1C. 6-9 week old female Athymic nude mice from Envigo were anesthetized, and a 20 mm^3 tumor fragment was placed subcutaneously via incision in the flank. When tumors established to a tumor volume ranging from 63 to 196 mm^3, mice were randomized into groups of 10 and were assigned into the following groups: control, Formula I (100 mg/kg), AZD5305 (10 mg/kg) or Formula I (100 mg/kg) and AZD5305 (10 mg/kg) in combination. Compound was administered via oral gavage once daily for at least 42 days dependent upon the treatment group. Body weight and tumor volume were measured twice per week. Tumor volume was calculated as mean and standard error of the mean for each treatment group.

Row | Compound | anti-tumor activity compared to equivalent doses of the single agents ([1]; Formula I (100 mg/kg) and AZD5305 (10 mg/kg), oral gavage once daily, at least 42 days, FIG. 1A) | tumor volume after addition of Formula I, compared to remaining animals on AZD5305 monotherapy [2] | resistance to AZD5305 monotherapy ([1]; AZD5305 (10 mg/kg) monotherapy, oral once daily, day 49, 5 mice)
1 | COc1ncnc(C2CC2)c1-c1ncc2cnn(Cc3ccc(-c4nc(C(F)(F)F)cn4C(C)C)cc3)c2n1 [Formula I, 6-(4-cyclopropyl-6-methoxypyrimidin-5-yl)-1-(4-(1-isopropyl-4-(trifluoromethyl)-1H-imidazol-2-yl)benzyl)-1H-pyrazolo[3,4-d]pyrimidine] | enhances antitumor activity of AZD5305 | decrease in tumor volume | 
2 | CCc1cc2ncc(CN3CCN(c4ccc(C(=O)NC)nc4)CC3)cc2[nH]c1=O [AZD5305, 5-[4-[(7-ethyl-6-oxo-5H-1,5-naphthyridin-3-yl)methyl]piperazin-1-yl]-N-methylpyridine-2-carboxamide, reference compound] |  |  | demonstrated resistance
